Data: patent publication US10913740B2, “JAK kinase inhibitor compounds for treatment of respiratory disease” (THERAVANCE BIOPHARMA R&D IP, LLC, priority 2015, dated 2021)
Read-outs that look alike come from different tables or passages of the source. One block for each compound: values may come before it.

Key:
[1] = molecular target: JAK1 (Homo sapiens (Human), UniProt P23458); assay: LanthaScreen JAK biochemical assay (JAK1); details: vs Examples 1, 7, 13, 6 respectively
[2] = tested on: interleukin-13 induced STAT6 phosphorylation in BEAS-2B human lung epithelial cells; assay: AlphaScreen JAKI cellular potency assay (BEAS-2B); assay type: cell-based; details: vs Examples 1, 7, 13, 6 respectively
[3] = mouse, in vivo
Procedure: (§1) Adult balb/c mice from Harlan were used in the assay. On the day of study, animals were lightly anesthetized with isoflurane and administered either vehicle or test compound (0.5 mg/mL, 50 μL total volume over several breaths) via oral aspiration. Animals were placed in lateral recumbency post dose and monitored for full recovery from anesthesia before being returned to their home cage. Four hours later, animals were once again briefly anesthetized and challenged with either vehicle or IL-13 (0.03 μg total dose delivered, 50 μL total volume) via oral aspiration before being monitored for recovery from anesthesia and returned to their home cage. One hour after vehicle or IL-13 administration, lungs were collected for both pSTAT6 detection using an anti-pSTAT6 ELISA (rabbit mAb capture/coating antibody; mouse mAb detection/report antibody: anti-pSTAT6-pY641; secondary antibody: anti-mouse IgG-HRP) and analyzed for total drug concentration as described above in Assay 4.
Selected compounds of the invention were characterized in both the pharmacokinetic assay (Assay 4) and pharmacodynamic assay (Assay 5). A good correlation was observed between test compound concentration in lung determined in the pharmacokinetic assay and in the pharmacodynamic assay at a similar time points post dosing. Observation of significant compound concentration in the mouse lung in the pharmacodynamic assay confirmed that the observed inhibition of IL-13 induced pSTAT6 induction was a result of the activity of the test compound.

[4] = Pharmacokinetics in plasma and lung in mouse; assay type: in vivo; details: ratio of lung AUC (μg hr/g) to plasma AUC (μg hr/mL), oral aspiration, 0.2 mg/mL, 50 uL
Procedure: Plasma and lung levels of test compounds and ratios thereof were determined in the following manner. BALB/c mice from Charles River Laboratories were used in the assay. Test compounds were individually formulated in 20% propylene glycol in pH 4 citrate buffer at a concentration of 0.2 mg/mL and 50 uL of the dosing solution was introduced into the trachea of a mouse by oral aspiration. At various time points (typically 0.167, 2, 6, 24 hr) post dosing, blood samples were removed via cardiac puncture and intact lungs were excised from the mice. Blood samples were centrifuged (Eppendorf centrifuge, 5804R) for 4 minutes at approximately 12,000 rpm at 4° C. to collect plasma. Lungs were padded dry, weighed, and homogenized at a dilution of 1:3 in sterile water. Plasma and lung levels of test compound were determined by LC-MS analysis against analytical standards constructed into a standard curve in the test matrix. A lung to plasma ratio was determined as the ratio of the lung AUC in μg hr/g to the plasma AUC in μg hr/mL, where AUC is conventionally defined as the area under the curve of test compound concentration vs. time.

[5] = tested on: IL-13 induced pSTAT6 in lung tissue; assay: Murine model of IL-13 induced pSTAT6 induction in lung tissue; assay type: in vivo; details: mouse lung, Assay 5 conditions
Procedure: Il-13 is an important cytokine underlying the pathophysiology of asthma (Kudlacz et al. Eur. J. Pharmacol, 2008, 582, 154-161). IL-13 binds to cell surface receptors activating members of the Janus family of kinases (JAK) which then phosphorylate STAT6 and subsequently activates further transcription pathways. In the described model, a dose of IL-13 was delivered locally into the lungs of mice to induce the phosphorylation of STAT6 (pSTAT6) which is then measured as the endpoint.
as §1, with “On the day of study, animals were lightly anesthetized with isoflurane and administered either vehicle or test compound (0.5 mg/mL, 50 μL total volume over several breaths) via oral aspiration.” left out, “4. […]” for “4.”

[6] = Dynamic moisture sorption assessment; assay type: physicochemical; details: humidity range of 5% to 90% relative humidity, room temperature (25° C.)
Procedure: Dynamic moisture sorption (DMS) measurement was performed using a VTI atmospheric microbalance, SGA-100 system (VTI Corp., Hialeah, Fla. 33016). A weighed sample was used and the humidity was lowest possible value (close to 0% RH) at the start of the analysis. The DMS analysis consisted of an initial drying step (˜0% RH) for 120 minutes, followed by two cycles of sorption and desorption with a scan rate of 5% RH/step over the humidity range of 5% RH to 90% RH. The DMS run was performed isothermally at 25° C.

JAK1, sequence (P23458 whole entry): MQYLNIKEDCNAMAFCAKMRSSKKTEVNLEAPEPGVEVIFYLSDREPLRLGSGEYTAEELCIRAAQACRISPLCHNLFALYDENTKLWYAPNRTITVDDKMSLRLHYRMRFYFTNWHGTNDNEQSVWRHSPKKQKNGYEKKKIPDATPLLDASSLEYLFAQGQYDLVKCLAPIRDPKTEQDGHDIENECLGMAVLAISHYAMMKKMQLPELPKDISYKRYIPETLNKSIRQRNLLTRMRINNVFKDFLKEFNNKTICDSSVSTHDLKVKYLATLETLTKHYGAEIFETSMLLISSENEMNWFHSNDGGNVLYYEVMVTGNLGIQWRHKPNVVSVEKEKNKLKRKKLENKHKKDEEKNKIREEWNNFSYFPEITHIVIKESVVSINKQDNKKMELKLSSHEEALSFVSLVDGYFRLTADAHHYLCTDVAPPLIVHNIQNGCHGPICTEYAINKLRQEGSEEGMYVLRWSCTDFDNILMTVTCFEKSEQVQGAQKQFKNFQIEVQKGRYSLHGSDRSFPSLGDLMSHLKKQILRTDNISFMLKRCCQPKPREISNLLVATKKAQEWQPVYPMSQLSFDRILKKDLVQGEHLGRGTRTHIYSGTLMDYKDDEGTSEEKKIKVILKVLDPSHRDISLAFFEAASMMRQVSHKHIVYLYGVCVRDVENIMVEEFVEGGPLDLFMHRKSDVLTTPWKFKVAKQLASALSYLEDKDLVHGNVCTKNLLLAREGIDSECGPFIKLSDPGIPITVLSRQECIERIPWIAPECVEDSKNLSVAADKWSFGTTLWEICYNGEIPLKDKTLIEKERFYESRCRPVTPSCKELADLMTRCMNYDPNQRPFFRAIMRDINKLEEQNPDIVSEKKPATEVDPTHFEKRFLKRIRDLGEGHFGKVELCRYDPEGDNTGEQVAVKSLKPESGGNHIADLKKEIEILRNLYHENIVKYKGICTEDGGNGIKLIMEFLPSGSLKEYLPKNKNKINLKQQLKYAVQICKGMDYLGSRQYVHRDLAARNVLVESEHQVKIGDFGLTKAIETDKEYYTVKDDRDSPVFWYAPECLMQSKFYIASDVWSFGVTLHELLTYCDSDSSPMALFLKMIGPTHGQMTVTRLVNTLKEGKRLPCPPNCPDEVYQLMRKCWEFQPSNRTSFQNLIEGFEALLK

fold less potent than the corresponding compound of the invention in the enzyme assay [1]: 6 fold | factor by which lung concentration was smaller than for the corresponding compound of the invention [3]: 13
SMILES: CCc1cc(O)c(F)cc1-c1ccc2c(-c3nc4c([nH]3)CCN(CC3CCCOC3)C4)n[nH]c2c1 (stereo not drawn) [Example C-3]
fold less potent than the corresponding compound of the invention in the BEAS-2B cellular assay [2]: 3 fold

Lung to Plasma ratio Assay 4 [4]: A (A denotes a ratio >100)
SMILES: CCc1cc(O)c(F)cc1-c1ccc2c(-c3nc4c([nH]3)CCN(C[C@H]3COCCN3)C4)n[nH]c2c1 [Example 13, (S)-5-Ethyl-2-fluoro-4-(3-(5-(morpholin-3-ylmethyl)-4,5,6,7-tetrahydro-1H-imidazo[4,5-c]pyridin-2-yl)-1H-indazol-6-yl)phenol]

fold less potent than the corresponding compound of the invention in the enzyme assay [1]: 2 fold | factor by which lung concentration was smaller than for the corresponding compound of the invention ([3]; balb/c, 5 h): 36
SMILES: CCc1cc(O)c(F)cc1-c1ccc2c(-c3nc4c([nH]3)CCN(C3CC(C)C3)C4)n[nH]c2c1 (stereo not drawn) [Example C-1, 5-Ethyl-2-fluoro-4-(3-(5-(3-methylcyclobutyl)-4,5,6,7-tetrahydro-1H-imidazo[4,5-c]pyridin-2-yl)-1H-indazol-6-yl)phenol]

SMILES: CCc1cc(O)c(F)cc1-c1ccc2c(-c3nc4c([nH]3)CCN(C3CN(C5CCS(=O)(=O)C5)C3)C4)n[nH]c2c1 (stereo not drawn) [Example 1-15]
pSTAT6 inhibition in the pharmacodynamic assay [5]: noted as exceptions

fold less potent than the corresponding compound of the invention in the enzyme assay [1]: 2.5 fold | factor by which lung concentration was smaller than for the corresponding compound of the invention [3]: 23
SMILES: CCc1cc(O)c(F)cc1-c1ccc2c(-c3nc4c([nH]3)CCN(C3CCC(C)CC3)C4)n[nH]c2c1 (stereo not drawn) [Example C-4]
fold less potent than the corresponding compound of the invention in the BEAS-2B cellular assay [2]: 6 fold

SMILES: CCc1cc(O)c(F)cc1-c1ccc2c(-c3nc4c([nH]3)CCN(CCNC3(C#N)CC3)C4)n[nH]c2c1 [Example 3-1]
pSTAT6 inhibition in the pharmacodynamic assay [5]: noted as exceptions

SMILES: CCc1cc(O)c(F)cc1-c1ccc2c(-c3nc4c([nH]3)CCN(CCC(C)C)C4)n[nH]c2c1 [Example C-2]
fold less potent than the corresponding compound of the invention in the enzyme assay [1]: 3 fold | fold less potent than the corresponding compound of the invention in the BEAS-2B cellular assay [2]: 6 fold | factor by which lung concentration was smaller than for the corresponding compound of the invention [3]: 52

weight gain (dynamic moisture sorption) [6]: less than 0.12%
SMILES: CCc1cc(O)c(F)cc1-c1ccc2c(-c3nc4c([nH]3)CCN(C3CCN(C)CC3)C4)n[nH]c2c1 [crystalline hydrate, 5-ethyl-2-fluoro-4-(3-(5-(1-methylpiperidin-4-yl)-4,5,6,7-tetrahydro-1H-imidazo[4,5-c]pyridin-2-yl)-1H-indazol-6-yl)phenol]

Lung to Plasma ratio Assay 4 [4]: A (A denotes a ratio >100)
SMILES: CCc1cc(O)c(F)cc1-c1ccc2c(-c3nc4c([nH]3)CCN(C[C@@H]3CCCN3C)C4)n[nH]c2c1 [Example 11, (S)-5-ethyl-2-fluoro-4-(3-(5-((1-methylpyrrolidin-2-yl)methyl)-4,5,6,7-tetrahydro-1H-imidazo[4,5-c]pyridin-2-yl)-1H-indazol-6-yl)phenol]

Lung to Plasma ratio Assay 4 [4]: A (A denotes a ratio >100)
SMILES: CCc1cc(O)c(F)cc1-c1ccc2c(-c3nc4c([nH]3)CCN(CCN(C)CC(C)C)C4)n[nH]c2c1 [Example 3-33]

Lung to Plasma ratio Assay 4 [4]: A (A denotes a ratio >100)
SMILES: CCc1cc(O)c(F)cc1-c1ccc2c(-c3nc4c([nH]3)CCN(CCNC3CC(OC)C3)C4)n[nH]c2c1 (stereo not drawn) [Example 8, 5-Ethyl-2-fluoro-4-(3-(5-(2-((3-methoxycyclobutyl)amino)ethyl)-4,5,6,7-tetrahydro-1H-imidazo[4,5-c]pyridin-2-yl)-1H-indazol-6-yl)phenol]

Lung to Plasma ratio Assay 4 [4]: A (A denotes a ratio >100)
SMILES: CCc1cc(O)c(F)cc1-c1ccc2c(-c3nc4c([nH]3)CCN(CCN3CCC[C@@H]3C)C4)n[nH]c2c1 [Example 15, (S)-5-ethyl-2-fluoro-4-(3-(5-(2-(2-methylpyrrolidin-1-yl)ethyl)-4,5,6,7-tetrahydro-1H-imidazo[4,5-c]pyridin-2-yl)-1H-indazol-6-yl)phenol]

Lung to Plasma ratio Assay 4 [4]: A (A denotes a ratio >100)
SMILES: CCc1cc(O)c(F)cc1-c1ccc2c(-c3nc4c([nH]3)CCN(CC3CNC3)C4)n[nH]c2c1 [Example 14-7]

Lung to Plasma ratio Assay 4 [4]: A (A denotes a ratio >100)
SMILES: CCc1cc(O)c(F)cc1-c1ccc2c(-c3nc4c([nH]3)CCN(C[C@@H]3COCCN3)C4)n[nH]c2c1 [Example 14, (R)-5-Ethyl-2-fluoro-4-(3-(5-(morpholin-3-ylmethyl)-4,5,6,7-tetrahydro-1H-imidazo[4,5-c]pyridin-2-yl)-1H-indazol-6-yl)phenol]
